As a reminder, the EC50 is the concentration needed to bring the measured effect to its halfway point. The low end stands for higher potency in that assay, the high end for lower potency in that assay.

From patent publication US12410163B2, “Compounds as GLP-IR agonists” (Terns Pharmaceuticals, Inc., priority 2022, dated 2025) come the findings set out here.

T1 sequence (P43220 24-463): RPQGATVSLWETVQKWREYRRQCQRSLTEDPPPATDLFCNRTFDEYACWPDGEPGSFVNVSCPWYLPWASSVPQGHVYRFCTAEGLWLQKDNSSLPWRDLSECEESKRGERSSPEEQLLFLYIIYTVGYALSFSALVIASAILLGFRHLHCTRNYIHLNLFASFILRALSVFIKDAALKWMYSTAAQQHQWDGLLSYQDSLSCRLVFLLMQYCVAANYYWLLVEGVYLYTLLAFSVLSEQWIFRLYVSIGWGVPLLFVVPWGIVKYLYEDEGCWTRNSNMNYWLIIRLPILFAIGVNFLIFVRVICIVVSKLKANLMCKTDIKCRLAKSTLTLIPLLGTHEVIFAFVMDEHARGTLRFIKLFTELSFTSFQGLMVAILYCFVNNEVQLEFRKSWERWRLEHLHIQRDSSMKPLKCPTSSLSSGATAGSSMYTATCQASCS

The first data set has as its target T1, human GLP-1R receptor (Homo sapiens, UniProt P43220).
T1 construct: expressed in transfected cells
In words: GLP-1R low expression cell assay (cAMP TR-FRET, CHO-K1_hGLP-1Rlow_clone10). Particulars: CHO-K1_hGLP-1Rlow_clone10 cells, percent activation relative to control GLP-1 peptide. Type of data set: cell-based. As to the method:
Stable cell lines expressing high and low GLP-1R surface expression are generated in CHO-K1 cells transfected (Fugene 6) with a puromycin selectable DNA plasmid encoding human GLP-1R receptor (accession number: NM_002062.5) under control of an EF1A promoter. Transfected cells are seeded into 24-well plates (9,000 cells/well) containing complete medium and incubated in a humidified incubator at 37° C. with 5% carbon dioxide. After overnight incubation, medium is replaced with complete medium supplemented with puromycin (6 μg/mL) and refreshed every 2-3 days to select for stably transfected cells. Individual pools of selected cells are expanded prior to analysis for responsiveness to GLP-1 control peptide using a TR-FRET assay to detect cAMP (LANCE Ultra cAMP Assay, Perkin Elmer). Briefly, cells are collected in Versene solution, plated in 384-well plates (1,000 cells/well) and combined with serially diluted GLP-1R control peptide (10 nL) using an acoustic dispenser (ECHO). Plates are incubated for 30 minutes at 25° C. prior to the addition of EU-cAMP tracer (5 μL) and Ulight-anti-cAMP (5 μL) reagents to each well, followed by 15 minutes incubation at 25° C. TR-FRET signal is detected using an EnVision Multimode Plate Reader (excitation=320 nm; emission=615 and 655 nm). Dose-response curves are used to generate EC50 values as a measure of responsiveness to the GLP-1R control peptide. Selected cell lines are monitored for responsiveness over multiple passages to ensure stability. […] Briefly, GLP-1R expression is analyzed by flow cytometry using a fluorescein-labeled Exendin-4 peptide fluorescent probe (FLEX). Cells are harvested in Versene solution and washed 3-times with PBS+0.5% BSA before incubation with FLEX reagent (10 μM) for 2 hours at room temperature. After incubation, cells are washed 3-times in PBS+0.5% BSA before final resuspension in PBS prior to analysis by flow cytometry to measure FLEX mean fluorescence intensity (MFI) as a measure of GLP-1R expression on the cell surface.
For compound testing in the CHO-K1_hGLP-1Rlow_clone10 cell lines, cells are seeded in 384-well plates (1,000 cells/well). Test compounds are serially diluted in DMSO (10-point, 3-fold dilution), added to wells using an ECHO dispenser (10 nL/well) and plates are centrifuged for 1 min and agitated for 2 min at room temperature prior to 30-minute incubation at 25° C. After incubation, Eu-cAMP (5 μL) and Ulight-anti-cAMP (5 μL) reagents are added to each well, followed by centrifugation for 1 minute, agitation for 2 minutes at room temperature, and final incubation of the plates at 25° C. for 15 minutes. Plates are read using an EnVision microplate reader (excitation=320 nm; emission=615 and 655 nm). Dose-response curves are generated from duplicate wells based on percent activation calculated relative to a control GLP-1 peptide agonist that was run in parallel. EC50 values are determined by fitting percent activation as a function of compound concentration using the Hill equation (XLfit).
Stable cell lines expressing high and low GLP-1R surface expression were generated in CHO-K1 cells transfected (Fugene 6) with a puromycin selectable DNA plasmid encoding human GLP-1R receptor (accession number: NM_002062.5) under control of an EF1A promoter. Transfected cells were seeded into 24-well plates (9,000 cells/well) containing complete medium and incubated in a humidified incubator at 37° C. with 5% carbon dioxide. After overnight incubation, medium was replaced with complete medium supplemented with puromycin (6 μg/mL) and refreshed every 2-3 days to select for stably transfected cells. Individual pools of selected cells were expanded prior to analysis for responsiveness to GLP-1 control peptide using a TR-FRET assay to detect cAMP (LANCE Ultra cAMP Assay, Perkin Elmer).
In turn, `N#Cc1ccc(COc2cccc(N3CCN(Cc4nc5ccc(-c6nnc(C(F)(F)F)[nH]6)cc5n4Cc4cncs4)[C@@H]4C[C@@H]43)n2)c(F)c1` (racemic) [Compound 12, 3-Fluoro-4-(((6-(5-((1-(thiazol-5-ylmethyl)-6-(5-(trifluoromethyl)-4H-1,2,4-triazol-3-yl)-1H-benzo[d]imidazol-2-yl)methyl)-2,5-diazabicyclo[4.1.0]heptan-2-yl)pyridin-2-yl)oxy)methyl)benzonitrile] came in with an EC50 above 100 nM.

For `CC1(c2ccc(C#N)cc2F)Oc2cccc(N3CCN(Cc4nc5ccc(-c6nnc(C(F)(F)F)[nH]6)cc5n4Cc4cncs4)C4CC43)c2O1` (centres unmarked) [Compound 13, 3-Fluoro-4-(2-methyl-4-(5-((1-(thiazol-5-ylmethyl)-6-(5-(trifluoromethyl)-4H-1,2,4-triazol-3-yl)-1H-benzo[d]imidazol-2-yl)methyl)-2,5-diazabicyclo[4.1.0]heptan-2-yl)benzo[d][1,3]dioxol-2-yl)benzonitrile], the EC50 was above 100 nM.

For the molecule `N#Cc1ccc(COc2cccc(C3CCN(Cc4nc5ccc(C(=O)O)cc5n4Cc4cncs4)C4CC34)n2)c(F)c1` (centres unmarked) [Compound 16, 2-((5-(6-((4-Cyano-2-fluorobenzyl)oxy)pyridin-2-yl)-2-azabicyclo[4.1.0]heptan-2-yl)methyl)-1-(thiazol-5-ylmethyl)-1H-benzo[d]imidazole-6-carboxylic Acid], the EC50 was 5 to 50 nM.

For `CO[C@H](C)Cn1c(CN2CCC(c3cccc(OCc4ccc(C#N)cc4F)n3)C3CC32)nc2ccc(C(=O)O)cc21` (stereo partly drawn) [Compound 21, 2-((5-(6-((4-Cyano-2-fluorobenzyl)oxy)pyridin-2-yl)-2-azabicyclo[4.1.0]heptan-2-yl)methyl)-1-((R)-2-methoxypropyl)-1H-benzo[d]imidazole-6-carboxylic Acid], the EC50 lay within 5 to 50 nM.

With `C[C@@]1(c2ccc(C#N)cc2F)Oc2cccc(N3CCN(Cc4nc5ccc(C(=O)O)cc5n4Cc4cncs4)[C@H]4C[C@H]43)c2O1` [Compound 35, 2-((5-(2-(4-Cyano-2-fluorophenyl)-2-methylbenzo[d][1,3]dioxol-4-yl)-2,5-diazabicyclo[4.1.0]heptan-2-yl)methyl)-1-(thiazol-5-ylmethyl)-1H-benzo[d]imidazole-6-carboxylic Acid], the EC50 was above 100 nM.

On to `CO[C@H](C)Cn1c(CN2CCN(c3cccc4c3OC(C)(c3ccc(C#N)cc3F)O4)C3CC32)nc2ccc(C(=O)O)cc21` (stereo partly drawn) [Compound 39, 2-((5-(2-(4-Cyano-2-fluorophenyl)-2-methylbenzo[d][1,3]dioxol-4-yl)-2,5-diazabicyclo[4.1.0]heptan-2-yl)methyl)-1-((R)-2-methoxypropyl)-1H-benzo[d]imidazole-6-carboxylic Acid], for which the EC50 lay within 50 to 100 nM.

With `CC1(c2ccc(C#N)cc2F)Oc2cccc(N3CCN(Cc4nc5ccc(C(=O)O)cc5n4C[C@@H]4CCO4)C4CC43)c2O1` (stereo partly drawn) [Compound 41, 2-((5-(2-(4-cyano-2-fluorophenyl)-2-methylbenzo[d][1,3]dioxol-4-yl)-2,5-diazabicyclo[4.1.0]heptan-2-yl)methyl)-1-(((S)-oxetan-2-yl)methyl)-1H-benzo[d]imidazole-6-carboxylic Acid], the EC50 is below 5 nM.

In the case of `CCn1nncc1Cn1c(CN2CCN(c3cccc(OCc4ccc(C#N)cc4F)n3)[C@@H]3C[C@@H]32)nc2ccc(C(=O)O)cc21` [Compound 44, 2-((5-(6-((4-Cyano-2-fluorobenzyl)oxy)pyridin-2-yl)-2,5-diazabicyclo[4.1.0]heptan-2-yl)methyl)-1-((1-ethyl-1H-1,2,3-triazol-5-yl)methyl)-1H-benzo[d]imidazole-6-carboxylic Acid], the EC50 was above 100 nM.

`N#Cc1ccc(COc2cccc(N3CCC(Cc4nc5ccc(C(=O)O)cc5n4Cc4cncs4)C4CC43)n2)c(F)c1` (centres unmarked) [Compound 46, 2-((2-(6-((4-Cyano-2-fluorobenzyl)oxy)pyridin-2-yl)-2-azabicyclo[4.1.0]heptan-5-yl)methyl)-1-(thiazol-5-ylmethyl)-1H-benzo[d]imidazole-6-carboxylic Acid]: the EC50 lay within 50 to 100 nM.

Test system in a further data set: not listed separately
The experiment in a line: Metabolic stability in hepatocytes. Format: in vitro ADME. Particulars: cryopreserved human hepatocytes (suspension), 1×10^6 cells/mL, 0-240 min, read-out: hHep t1/2. As for the experimental part:
Test compounds are incubated in human hepatocytes and stability is assessed from the substrate […] approach. Test compounds are dissolved in dimethyl sulfoxide (DMSO) to create a 10 mM Stock, and then further diluted to create a 1000× Working Stock of 1 mM with DMSO in 96-well plates for test compounds and the positive control (midazolam). Vials containing cryopreserved hepatocytes are removed from the liquid nitrogen tank and immediately immersed in a 37° C. water bath. The vials are shaken gently until the contents had thawed and were then immediately emptied into 48 mL of pre-warmed HT Medium in a 50 mL conical tube. Cells remaining in the vial are resuspended with 1.0 mL of pre-warmed HT Medium and added to the conical tube. The tube is capped and then gently inverted several times to resuspend the hepatocytes. The cell suspension is centrifuged at 50×g at room temperature for 5 minutes and the supernatant discarded. The cell pellet is loosened by gently swirling the centrifuge tube and is re-suspended in 4 mL of warm Dulbecco's Modified Eagle medium (DMEM). Cell density is determined by a cell counter by Nexcelom, and DMEM medium is added to obtain a target density of 1×10^6 cells/mL. The assay is carried out in 96-well microtiter plates. Test Compounds are incubated at 1 μM with 1×10^6 cells/mL hepatocytes in DMEM for 0, 30, 60, 120 and 240 minutes. The incubation is carried out with gentle shaking at 37° C. under a humid atmosphere of 95% air/5% CO2. The volume of the incubation mixture is 37 μL with a final 0.1% DMSO. At each of the time points, the incubation is stopped by adding 150 μL quenching solution (100% acetonitrile, 0.1% formic acid containing bucetin as an internal standard for positive ESI mode). Subsequently, the mixtures are vortexed for 20 min and centrifuged at 4,000 RPM at 10° C. The supernatant (80 μL) is transferred to a clean 96-well plate and analyzed by LC-MS/MS. Midazolam at 1 μM with a final 0.1% DMSO is included as a positive control to verify assay performance. The percent parent remaining, intrinsic and predicted hepatic clearance and t1/2 are calculated. All samples are analyzed by LC-MS/MS using an AB Sciex API 4000 instrument, coupled to a Shimadzu LC-20AD LC Pump system. Separation is achieved using a Waters Atlantis T3 dC18 reverse phase HPLC column (20 mm×2.1 mm) at a flow rate of 0.5 mL/min. The mobile phase consisted of 0.1% formic acid in water (solvent A) and 0.1% formic acid in 100% acetonitrile (solvent B). Elution conditions are detailed below.
The ion optics of each test compound are optimized for their declustering potential (DP), […] (CE), collision-cell exit potential (CXP) and used in a selected ion monitoring experiment in the positive ion mode. The peak area ratio of each test compound to internal standard is then evaluated for stability. The extent of metabolism is calculated based on the disappearance of the test compound, compared to its initial concentration. The initial rates of clearance of the test compound are calculated using the linear regression plot of semi-log % remaining of the compound versus time. The elimination rate constant (k) of the linear regression plot is then used to determine t1/2 and the intrinsic clearance (CLint) using the following formula, where Chepatocyte (million cells/mL) is the cell density of the incubation: k=−slope t1/2=0.693/k CLint=k/Chepatocyte
Test compounds were incubated in human hepatocytes and stability was assessed from the substrate […] approach. Test compounds were dissolved in dimethyl sulfoxide (DMSO) to create a 10 mM Stock, and then further diluted to create a 1000× Working Stock of 1 mM with DMSO in 96-well plates for test compounds and the positive control (midazolam). Vials containing cryopreserved hepatocytes were removed from the liquid nitrogen tank and immediately immersed in a 37° C. water bath. […]
With `N#Cc1ccc(COc2cccc(C3CCN(Cc4nc5ccc(C(=O)O)cc5n4C[C@@H]4CCO4)CC3)n2)c(F)c1` [Reference Compound B, reference compound], the half-life at 1 μM came to 2.6 h.

Still in this data set, the particulars now being: cryopreserved human hepatocytes (suspension), 1×10^6 cells/mL, intrinsic clearance, read-out: hHep CLint.
Regarding `N#Cc1ccc(COc2cccc(C3CCN(Cc4nc5ccc(C(=O)O)cc5n4C[C@@H]4CCO4)CC3)n2)c(F)c1` [Reference Compound B, reference compound], the CLint scaled at 1 μM was 15.5 mL/min/kg.
